Target: T1, ZnT1 binding to GluN2A C-terminal peptide sequences (Mus musculus, UniProt Q60738)
T1 construct: made in house; peptides: Fmoc spot synthesis on nitrocellulose
T1 sequence (Q60738 1-503): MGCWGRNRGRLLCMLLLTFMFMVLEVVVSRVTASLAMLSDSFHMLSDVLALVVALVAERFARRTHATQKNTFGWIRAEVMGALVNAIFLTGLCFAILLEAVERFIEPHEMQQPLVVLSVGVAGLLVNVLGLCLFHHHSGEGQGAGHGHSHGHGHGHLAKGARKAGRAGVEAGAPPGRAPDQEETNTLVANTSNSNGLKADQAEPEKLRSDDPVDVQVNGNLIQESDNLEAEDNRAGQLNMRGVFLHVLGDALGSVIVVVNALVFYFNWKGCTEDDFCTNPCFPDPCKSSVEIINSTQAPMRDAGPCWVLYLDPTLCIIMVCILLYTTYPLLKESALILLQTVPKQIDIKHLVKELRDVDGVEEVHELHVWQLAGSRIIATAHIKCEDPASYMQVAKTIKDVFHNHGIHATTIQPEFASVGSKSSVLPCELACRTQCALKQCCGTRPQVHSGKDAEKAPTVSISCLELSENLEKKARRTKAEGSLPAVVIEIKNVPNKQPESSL
Assay: Peptide spot array repeated in the presence of N2AZ or scN2AZ
Details: 100 μM, compared to scN2AZ control
Description: FIG. 2: N2AZ reduces ZnT1 binding to GluN2A C-terminal peptide sequences. Quantification of peptide spot arrays of GluN2A C-terminus region (residues 1390-1464) using the same peptide segments as FIG. 1B (Peptides 1-61 correspond to fragments of SEQ ID NO: 21, as listed in Table 1). […] Mean±SEM (n=4). (Inset) Representative peptide spot-array in scN2AZ (top) and N2AZ (bottom).
Far-Western protein-binding affinity assays were performed as previously described (Brittain et al., 2011; Yeh et al., 2017) (Moutal et al., 2017). Peptide spot arrays (15 mers) spanning the proximal C-terminus residues 1390-1464 of mouse GluN2A (Uniprot# P35436) in overlapping 1 aa steps were constructed using the Spots-synthesis method. Standard 9-fluorenylmethoxy carbonyl (Fmoc) chemistry was used to synthesize the peptides and spot them onto nitrocellulose membranes pre-derivatized with a polyethylene glycerol spacer (Intavis). […] Finally, the membrane was incubated in secondary antibody for 45 minutes, washed 3 times for 5 minutes in TBST, and visualized by infrared fluorescence (Li-Cor). […]
To study the effect of ZnT1 on NMDAR modulation, a peptide was designed to disrupt the ZnT1-GluN2A interaction. […] Next, the peptide spot arrays were probed with flag-tagged ZnT1-enriched cell lysates and ZnT1 binding was visualized and quantified with immunofluorescence against the flag tag (FIG. 1A). […]

NDSYLRSSL [Peptide N2AZ]
ZnT1 binding to the spot array in the presence of peptide: significantly reduced

Source: US20230034660A1, “PEPTIDES THAT ENHANCE NMDA RECEPTOR FUNCTION AND USE THEREOF” (University of Pittsburgh - Of the Commonwealth System of …, priority 2019, published 2023)
